The results in this text go back to PubChem BioAssay AID1259407 (Chemical Carcinogenesis Research Information System (CCRIS), 2018).

Active and inactive are the calls of the source. No rule for the calls is given here.

This series relates to CCRIS mutagenicity, Ames/micronucleus/aberration tests. Description: CCRIS mutagenicity studies.
Where [1] appears, read: Test System: AMES SALMONELLA TYPHIMURIUM, Strain/Indicator: TA98, Metabolic Activation: NONE, Method: PREINCUBATION
Setting [2] is: Test System: AMES SALMONELLA TYPHIMURIUM, Strain/Indicator: TA100, Metabolic Activation: NONE, Method: PREINCUBATION
[3] abbreviates: Test System: MOUSE LYMPHOMA, Strain/Indicator: L5178Y (TK+/TK-), Metabolic Activation: NONE, Method: SUSPENSION/PLATE.

Take `O=Cc1ccc(Cl)cc1`: the mutagenic call under setting [1] is “inactive; negative”; the mutagenic call (Test System: AMES SALMONELLA TYPHIMURIUM, Strain/Indicator: TA98, Metabolic Activation: RAT LIVER S-9, PCB, Method: PREINCUBATION) was “inactive; negative”; the mutagenic call under setting [2] was “inactive; negative”; the mutagenic call (Test System: AMES SALMONELLA TYPHIMURIUM, Strain/Indicator: TA100, Metabolic Activation: RAT LIVER S-9, AROCLOR 1254, Method: PREINCUBATION) was “inactive; negative”; the mutagenic call (Test System: AMES SALMONELLA TYPHIMURIUM, Strain/Indicator: TA100, Metabolic Activation: RAT LIVER S-9, PCB, Method: PREINCUBATION) is “inactive; negative”; the mutagenic call (Test System: AMES SALMONELLA TYPHIMURIUM, Strain/Indicator: TA102, Metabolic Activation: NONE, Method: PREINCUBATION) is “inactive; negative”. The mutagenic call runs as follows: (Test System: AMES SALMONELLA TYPHIMURIUM, Strain/Indicator: TA102, Metabolic Activation: RAT LIVER S-9, AROCLOR 1254, Method: PREINCUBATION) “inactive; negative”; (Test System: AMES SALMONELLA TYPHIMURIUM, Strain/Indicator: TA104, Metabolic Activation: NONE, Method: PREINCUBATION) “inactive; negative”; (Test System: AMES SALMONELLA TYPHIMURIUM, Strain/Indicator: TA104, Metabolic Activation: RAT LIVER S-9, AROCLOR 1254, Method: PREINCUBATION) “inactive; negative”; (Test System: AMES SALMONELLA TYPHIMURIUM, Strain/Indicator: TA104, Metabolic Activation: RAT LIVER S-9, PCB, Method: PREINCUBATION) “inactive; negative”; (Test System: E. COLI, Strain/Indicator: WP2 UVRA, Metabolic Activation: NONE, Method: PREINCUBATION) “inactive; negative”; (Test System: E. COLI, Strain/Indicator: WP2 UVRA, Metabolic Activation: RAT LIVER S-9, PCB, Method: PREINCUBATION) “inactive; negative”. Also, the mutagenic call runs as follows: under setting [3], “inactive; positive. reevaluation of results: negative”; (Test System: Mouse lymphoma, Strain/Indicator: L5178Y (tk+/tk-), Metabolic Activation: Rat, Liver, S-9, Aroclor 1254, Method: Suspension/plate) “inactive; negative”.
`O=[N+]([O-])c1cc([As](=O)(O)O)ccc1O`: the mutagenic call is, setting by setting: (End Point: IN VITRO CHROMOSOMAL ABERRATIONS, Test System: CHO CELLS, Metabolic Activation: RAT, LIVER, S-9, AROCLOR 1254) “inactive; negative; testing limited by solubility of the chemical”; (End Point: IN VITRO CHROMOSOMAL ABERRATIONS, Test System: CHO CELLS, Metabolic Activation: RAT, LIVER, S-9, PHENOBARBITAL AND BETA-NAPHTHOFLAVONE) “inactive; negative”; (Test System: AMES SALMONELLA TYPHIMURIUM, Strain/Indicator: TA98, Metabolic Activation: HAMSTER, LIVER, S-9, AROCLOR 1254 (10%), Method: PREINCUBATION) “inactive; negative”; (Test System: AMES SALMONELLA TYPHIMURIUM, Strain/Indicator: TA98, Metabolic Activation: HAMSTER, LIVER, S-9, AROCLOR 1254, Method: PREINCUBATION) “inactive; negative”; under setting [1], “inactive; negative”; (Test System: AMES SALMONELLA TYPHIMURIUM, Strain/Indicator: TA98, Metabolic Activation: RAT, LIVER, S-9, AROCLOR 1254 (10%), Method: PREINCUBATION) “inactive; negative”. The mutagenic call by setting is: (Test System: AMES SALMONELLA TYPHIMURIUM, Strain/Indicator: TA98, Metabolic Activation: RAT, LIVER, S-9, AROCLOR 1254, Method: PREINCUBATION) “inactive; negative”; (Test System: AMES SALMONELLA TYPHIMURIUM, Strain/Indicator: TA100, Metabolic Activation: HAMSTER, LIVER, S-9, AROCLOR 1254 (10%), Method: PREINCUBATION) “inactive; negative”; (Test System: AMES SALMONELLA TYPHIMURIUM, Strain/Indicator: TA100, Metabolic Activation: HAMSTER, LIVER, S-9, AROCLOR 1254, Method: PREINCUBATION) “inactive; negative”; under setting [2], “inactive; negative”; (Test System: AMES SALMONELLA TYPHIMURIUM, Strain/Indicator: TA100, Metabolic Activation: RAT, LIVER, S-9, AROCLOR 1254 (10%), Method: PREINCUBATION) “inactive; negative”; (Test System: AMES SALMONELLA TYPHIMURIUM, Strain/Indicator: TA100, Metabolic Activation: RAT, LIVER, S-9, AROCLOR 1254, Method: PREINCUBATION) “inactive; negative”. In addition, the mutagenic call runs as follows: (Test System: AMES SALMONELLA TYPHIMURIUM, Strain/Indicator: TA1535, Metabolic Activation: HAMSTER, LIVER, S-9, AROCLOR 1254 (10%), Method: PREINCUBATION) “inactive; negative”; (Test System: AMES SALMONELLA TYPHIMURIUM, Strain/Indicator: TA1535, Metabolic Activation: HAMSTER, LIVER, S-9, AROCLOR 1254, Method: PREINCUBATION) “inactive; negative”; (Test System: AMES SALMONELLA TYPHIMURIUM, Strain/Indicator: TA1535, Metabolic Activation: NONE, Method: PREINCUBATION) “inactive; negative”; (Test System: AMES SALMONELLA TYPHIMURIUM, Strain/Indicator: TA1535, Metabolic Activation: RAT, LIVER, S-9, AROCLOR 1254 (10%), Method: PREINCUBATION) “inactive; negative”; (Test System: AMES SALMONELLA TYPHIMURIUM, Strain/Indicator: TA1535, Metabolic Activation: RAT, LIVER, S-9, AROCLOR 1254, Method: PREINCUBATION) “inactive; negative”; (Test System: AMES SALMONELLA TYPHIMURIUM, Strain/Indicator: TA1537, Metabolic Activation: HAMSTER, LIVER, S-9, AROCLOR 1254 (10%), Method: PREINCUBATION) “inactive; negative”. In addition, the mutagenic call runs as follows: (Test System: AMES SALMONELLA TYPHIMURIUM, Strain/Indicator: TA1537, Metabolic Activation: HAMSTER, LIVER, S-9, AROCLOR 1254, Method: PREINCUBATION) “inactive; negative”; (Test System: AMES SALMONELLA TYPHIMURIUM, Strain/Indicator: TA1537, Metabolic Activation: NONE, Method: PREINCUBATION) “inactive; negative”; (Test System: AMES SALMONELLA TYPHIMURIUM, Strain/Indicator: TA1537, Metabolic Activation: RAT, LIVER, S-9, AROCLOR 1254 (10%), Method: PREINCUBATION) “inactive; negative”; (Test System: AMES SALMONELLA TYPHIMURIUM, Strain/Indicator: TA1537, Metabolic Activation: RAT, LIVER, S-9, AROCLOR 1254, Method: PREINCUBATION) “inactive; negative”; under setting [3], “active; positive”.
